Source: patent US20250163076A1, “SYNTHESIS OF BRUTON'S TYROSINE KINASE INHIBITORS” (JANSSEN PHARMACEUTICA NV, priority 2022, published 2025)
≈ marks a conversion by molar mass, not a printed value. Where two headings read alike, the source gives them in different places. Marks after values point to notes of the source that are not given here.

Experiment: Solubility of P and M forms in solvent systems and their water mixtures
Type: physicochemical
Text: Moreover, this solubility difference can be tuned by changing the ratio between 1-propanol/water. Therefore, M form can be efficiently converted even starting from a 1:1 d.r. mixture.

[1] = 1-Butanol/water (~6/94 w/w %), 10° C.
[2] = 1-Butanol/water (~6/94 w/w %), 25° C.
[3] = 1-Butanol/water (~6/94 w/w %), 50° C.
[4] = 1-Butanol/water (~80/20 w/w %), 10° C.
[5] = 1-Butanol/water (~80/20 w/w %), 25° C.
[6] = 1-Butanol/water (~80/20 w/w %), 50° C.
[7] = 1-Propanol/water (20/80 w/w %), 25° C.
[8] = 1-Propanol/water (20/80 w/w %), 50° C.
[9] = 1-Propanol/water (33/67 w/w %), 25° C.
[10] = 1-Propanol/water (33/67 w/w %), 50° C.
[11] = 1-Propanol/water (50/50 w/w %), 25° C.
[12] = 1-Propanol/water (50/50 w/w %), 50° C.
[13] = 1-Propanol/water (67/33 w/w %), 10° C.
[14] = 1-Propanol/water (67/33 w/w %), 25° C.
[15] = 1-Propanol/water (67/33 w/w %), 50° C.
[16] = 1-Propanol/water (80/20 w/w %), 10° C.
[17] = 1-Propanol/water (80/20 w/w %), 25° C.
[18] = 1-Propanol/water (80/20 w/w %), 50° C.
[19] = 2-butanol/water (~17/83 w/w %), 10° C.
[20] = 2-butanol/water (~17/83 w/w %), 25° C.
[21] = Isopropanol/water (~16/84 w/w %), 10° C.
[22] = Isopropanol/water (~16/84 w/w %), 25° C.
[23] = Isopropanol/water (~16/84 w/w %), 50° C.
[24] = Isopropanol/water (~28/72 w/w %), 10° C.
[25] = Isopropanol/water (~28/72 w/w %), 25° C.
[26] = Isopropanol/water (~28/72 w/w %), 50° C.
[27] = Isopropanol/water (~44/56 w/w %), 10° C.
[28] = Isopropanol/water (~44/56 w/w %), 25° C.
[29] = Isopropanol/water (~44/56 w/w %), 50° C.
[30] = Isopropanol/water (~61/39 w/w %), 10° C.
[31] = Isopropanol/water (~61/39 w/w %), 25° C.
[32] = Isopropanol/water (~61/39 w/w %), 50° C.
[33] = Propylene carbonate/water (93/7 w/w %), 10° C.
[34] = Propylene carbonate/water (93/7 w/w %), 25° C.
[35] = Propylene carbonate/water (93/7 w/w %), 50° C.

C=CC(=O)N[C@H]1CCC[C@H]1NC(=O)c1sc2nccc3c2c1NC(=O)N3c1cnc(CC(C)C)cc1C (single isomer, unassigned) [M form]
Solubility [1]: 0.2 mg/mL (≈ 0.386 mM) | Solubility [2]: 0.3 mg/mL (≈ 0.578 mM) | Solubility [3]: immiscible | Solubility [4]: 346.6 mg/mL (≈ 668 mM) | Solubility [5]: 334.0 mg/mL (≈ 644 mM) | Solubility [6]: immiscible | Solubility (1-Butanol, 10° C.): 397.5* mg/mL | Solubility (1-Butanol, 25° C.): 266.2 mg/mL (≈ 513 mM) | Solubility (1-Butanol, 50° C.): 444.7 mg/mL (≈ 857 mM) | Solubility (1-Propanol/water (20/80 w/w %), 10° C.): 4.2 mg/mL (≈ 8.1 mM) | Solubility [7]: 3.7 mg/mL (≈ 7.13 mM) | Solubility [8]: 4.9 mg/mL (≈ 9.45 mM) | Solubility [9]: 39.9 mg/mL (≈ 76.9 mM) | Solubility [10]: 285.9 mg/mL (≈ 551 mM) | Solubility [11]: 187.5 mg/mL (≈ 362 mM) | Solubility [12]: 276.3 mg/mL (≈ 533 mM) | Solubility [13]: 341.7 mg/mL (≈ 659 mM) | Solubility [14]: 336.5 mg/mL (≈ 649 mM) | Solubility [15]: 363.3 mg/mL (≈ 700 mM) | Solubility [16]: 394.0 mg/mL (≈ 760 mM) | Solubility [17]: 386.8 mg/mL (≈ 746 mM) | Solubility [18]: 394.5 mg/mL (≈ 761 mM) | Solubility (1-Propanol, 10° C.): 500.4 mg/mL (≈ 965 mM) | Solubility (1-Propanol, 25° C.): 265.4 mg/mL (≈ 512 mM) | Solubility [19]: 2.5 mg/mL (≈ 4.82 mM) | Solubility [20]: 1.7 mg/mL (≈ 3.28 mM) | Solubility (2-butanol/water (~17/83 w/w %), 50° C.): 0.2 mg/mL (≈ 0.386 mM) | Solubility (Isobutanol/water (~8/92 w/w %), 10° C.): 0.2 mg/mL (≈ 0.386 mM) | Solubility (Isobutanol/water (~8/92 w/w %), 25° C.): 0.2 mg/mL (≈ 0.386 mM) | Solubility (Isobutanol/water (~8/92 w/w %), 50° C.): 0.1 mg/mL (≈ 0.193 mM) | Solubility (Isobutanol, 10° C.): 272.5* mg/mL | Solubility (Isobutanol, 25° C.): 238.0 mg/mL (≈ 459 mM) | Solubility (Isobutanol, 50° C.): 389.4 mg/mL (≈ 751 mM) | Solubility [21]: 0.6 mg/mL (≈ 1.16 mM) | Solubility [22]: 0.6 mg/mL (≈ 1.16 mM) | Solubility [23]: 4.0 mg/mL (≈ 7.71 mM) | Solubility [24]: 3.0 mg/mL (≈ 5.78 mM) | Solubility [25]: 4.6 mg/mL (≈ 8.87 mM) | Solubility [26]: 10.0 mg/mL (≈ 19.3 mM) | Solubility [27]: 31.0 mg/mL (≈ 59.8 mM) | Solubility [28]: 31.0 mg/mL (≈ 59.8 mM) | Solubility [29]: >200 mg/mL | Solubility [30]: 126.0 mg/mL (≈ 243 mM) | Solubility [31]: 109.0 mg/mL (≈ 210 mM) | Solubility [32]: >200 mg/mL | Solubility [33]: 129.8 mg/mL (≈ 250 mM) | Solubility [34]: 123.9 mg/mL (≈ 239 mM) | Solubility [35]: 106.5 mg/mL (≈ 205 mM) | Solubility (Propylene carbonate, 10° C.): 163.1 mg/mL (≈ 314 mM) | Solubility (Propylene carbonate, 25° C.): 73.7 mg/mL (≈ 142 mM) | Solubility (Propylene carbonate, 50° C.): 107.0* mg/mL

C=CC(=O)N[C@H]1CCC[C@H]1NC(=O)c1sc2nccc3c2c1NC(=O)N3c1cnc(CC(C)C)cc1C (single isomer, unassigned) [P form]
Solubility [1]: 0.01 mg/mL (≈ 0.0193 mM) | Solubility [2]: 0.01 mg/mL (≈ 0.0193 mM) | Solubility [3]: immiscible | Solubility [4]: 18.2 mg/mL (≈ 35.1 mM) | Solubility [5]: 20.7 mg/mL (≈ 39.9 mM) | Solubility [6]: immiscible | Solubility (1-Butanol, 10° C.): 137.3 mg/mL (≈ 265 mM) | Solubility (1-Butanol, 25° C.): 132.8 mg/mL (≈ 256 mM) | Solubility (1-Butanol, 50° C.): 197.6 mg/mL (≈ 381 mM) | Solubility [7]: 0.4 mg/mL (≈ 0.771 mM) | Solubility [8]: 0.5 mg/mL (≈ 0.964 mM) | Solubility (1-Propanol/water (33/67 w/w %), 10 °C, aqueous with cosolvent or surfactant or cyclodextrin, thermodynamic from solid, 1-Propanol/water (33/67 w/w %), 10° C., read-out: Solubility): 2.2 mg/mL (≈ 4.24 mM) | Solubility [9]: 1.9 mg/mL (≈ 3.66 mM) | Solubility [10]: 1.8 mg/mL (≈ 3.47 mM) | Solubility [11]: 8.5 mg/mL (≈ 16.4 mM) | Solubility [12]: 15.6* mg/mL | Solubility [13]: 18.0 mg/mL (≈ 34.7 mM) | Solubility [14]: 20.8 mg/mL (≈ 40.1 mM) | Solubility [15]: 20.3* mg/mL | Solubility [16]: 24.8 mg/mL (≈ 47.8 mM) | Solubility [17]: 26.3 mg/mL (≈ 50.7 mM) | Solubility [18]: 32.3* mg/mL | Solubility (1-Propanol, 10° C.): 206.8 mg/mL (≈ 399 mM) | Solubility (1-propanol, 25 °C, organic solvent or mixture, 1-Propanol, 25° C., read-out: Solubility): 197 mg/mL (≈ 380 mM) | Solubility (1-propanol, 50 °C, organic solvent or mixture, 1-Propanol, 50° C., read-out: Solubility): 255 mg/mL (≈ 492 mM) | Solubility (1-propanol/water (50/50 w/w %), 10 °C, aqueous with cosolvent or surfactant or cyclodextrin, thermodynamic from solid, 1-Propanol/water (50/50 w/w %), 10° C., read-out: Solubility): 8.1 mg/mL (≈ 15.6 mM) | Solubility (2-butanol/water (~17/83 w/w %), 50 °C, aqueous with cosolvent or surfactant or cyclodextrin, 2-butanol/water (~17/83 w/w %), 50° C., read-out: Solubility): 0.2 mg/mL (≈ 0.386 mM) | Solubility [19]: 0.5 mg/mL (≈ 0.964 mM) | Solubility [20]: 0.3 mg/mL (≈ 0.578 mM) | Solubility (Isobutanol, 10° C.): 105.8 mg/mL (≈ 204 mM) | Solubility (Isobutanol, 25° C.): 102.2 mg/mL (≈ 197 mM) | Solubility (Isobutanol, 50° C.): 134.3 mg/mL (≈ 259 mM) | Solubility [21]: 0.1 mg/mL (≈ 0.193 mM) | Solubility [22]: 0.2 mg/mL (≈ 0.386 mM) | Solubility [23]: 0.3 mg/mL (≈ 0.578 mM) | Solubility [24]: 0.4 mg/mL (≈ 0.771 mM) | Solubility [25]: 0.7 mg/mL (≈ 1.35 mM) | Solubility [26]: 1.1 mg/mL (≈ 2.12 mM) | Solubility [27]: 2.0 mg/mL (≈ 3.86 mM) | Solubility [28]: 3.0 mg/mL (≈ 5.78 mM) | Solubility [29]: 2.0 mg/mL (≈ 3.86 mM) | Solubility [30]: 4.0 mg/mL (≈ 7.71 mM) | Solubility [31]: 6.0 mg/mL (≈ 11.6 mM) | Solubility [32]: 4.0 mg/mL (≈ 7.71 mM) | Solubility [33]: 10.9 mg/mL (≈ 21 mM) | Solubility [34]: 9.0 mg/mL (≈ 17.4 mM) | Solubility [35]: 8.6 mg/mL (≈ 16.6 mM) | Solubility (Propylene carbonate, 10° C.): 55.8 mg/mL (≈ 108 mM) | Solubility (isobutanol/water (~8/92 w/w %), 10 °C, aqueous with cosolvent or surfactant or cyclodextrin, Isobutanol/water (~8/92 w/w %), 10° C., read-out: Solubility): 0.1 mg/mL (≈ 0.193 mM) | Solubility (isobutanol/water (~8/92 w/w %), 25 °C, aqueous with cosolvent or surfactant or cyclodextrin, Isobutanol/water (~8/92 w/w %), 25° C., read-out: Solubility): 0.1 mg/mL (≈ 0.193 mM) | Solubility (isobutanol/water (~8/92 w/w %), 50 °C, aqueous with cosolvent or surfactant or cyclodextrin, Isobutanol/water (~8/92 w/w %), 50° C., read-out: Solubility): 0.1 mg/mL (≈ 0.193 mM) | Solubility (propylene carbonate, 25 °C, organic solvent or mixture, Propylene carbonate, 25° C., read-out: Solubility): 50.1 mg/mL (≈ 96.6 mM) | Solubility (propylene carbonate, 50 °C, organic solvent or mixture, Propylene carbonate, 50° C., read-out: Solubility): 97.3 mg/mL (≈ 188 mM)
